Measurements taken from PubChem BioAssay AID328 (DTP/NCI, 2004).
Values joined by “and” are separate entries in the source; they are usually repeats but may differ in a detail not shown here. Equal entries are not always repeated. Inconclusive results and toxic doses are left out.

Test system: BDF1 mice, P388 leukemia ip, median survival T/C
Test: NCI In Vivo Anticancer Drug Screen. Data for tumor model P388 Leukemia (intraperitoneal) in B6D2F1 (BDF1) mice
Conditions: endpoint: median survival time, higher = longer survival
Method in brief: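 Compound-treated tumour-bearing mice were compared with vehicle-treated controls. Survival was recorded, and the value is the treated-group measurement divided by the control-group measurement (T/C).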

[1] = dose: 200.0 mg/kg/injection, schedule: Q01DX009 (ip), vehicle: saline with Tween-80

With `CC(=O)[O][Pb]([CH2]CC(C)C)([CH2]CC(C)C)[CH2]CC(C)C` the T/C (dose: 0.19 mg/kg/injection, schedule: Q01DX009 (ip), vehicle: saline with Tween-80) was 123 % of control, the T/C (dose: 0.38 mg/kg/injection, schedule: Q01DX009 (ip), vehicle: Klucel (hydroxypropylcellulose) (HPC)) was 94 % of control and the T/C (dose: 0.38 mg/kg/injection, schedule: Q01DX009 (ip), vehicle: saline with Tween-80) was 111 % of control. For the same compound, the T/C (dose: 0.75 mg/kg/injection, schedule: Q01DX009 (ip), vehicle: Klucel (hydroxypropylcellulose) (HPC)) was 105 % of control and the T/C (dose: 0.75 mg/kg/injection, schedule: Q01DX009 (ip), vehicle: saline with Tween-80) was 106 % of control.
With `O=C(c1ccccc1)c1cc[n+]([O-])cc1` the T/C (dose: 75.0 mg/kg/injection, schedule: Q01DX001 (ip), vehicle: saline sonified) was 91 % of control and the T/C (dose: 150.0 mg/kg/injection, schedule: Q01DX001 (ip), vehicle: saline sonified) was 91 % of control.
In the case of `Cc1n[nH]c2ccc([N+](=O)[O-])cc2c1=O`, the T/C [1] is reported as 87 % of control.
With `CCCCNP(=O)(N1CC1CC)N1CC1CC` (configuration not stated) the T/C (dose: 100.0 mg/kg/injection, schedule: Q04DX003 (ip), vehicle: saline) was 122 % of control.
`CCC1/C=C/C=C/CC(C)C(O)C(C)(O)C(=O)C(C)C(O)C(C)C(=O)C(C)C(O)C(C)/C=C/C(=O)OC2C(C)C(CC1)OC1(OC(CC(C)O)C(C)CC1=O)C2C` (configuration not stated) (tested in a mixture with another compound) was tested, and the T/C (dose: 0.15 mg/kg/injection, schedule: Q01DX010 (ip), vehicle: carboxymethylcellulose (CMC)) was 110 % of control, the T/C (dose: 0.15 mg/kg/injection, schedule: Q01DX010 (ip), vehicle: saline) was 109 % of control and the T/C (dose: 0.3 mg/kg/injection, schedule: Q01DX010 (ip), vehicle: carboxymethylcellulose (CMC)) was 110 % of control. For the same compound, the T/C (dose: 0.3 mg/kg/injection, schedule: Q01DX010 (ip), vehicle: saline) was 150 % of control and 154 % of control, the T/C (dose: 0.6 mg/kg/injection, schedule: Q01DX010 (ip), vehicle: carboxymethylcellulose (CMC)) was 120 % of control and the T/C (dose: 0.6 mg/kg/injection, schedule: Q01DX010 (ip), vehicle: saline) was 154 % of control. The T/C (dose: 1.2 mg/kg/injection, schedule: Q01DX010 (ip), vehicle: carboxymethylcellulose (CMC)) was 190 % of control, the T/C (dose: 1.2 mg/kg/injection, schedule: Q01DX010 (ip), vehicle: saline) was 163 % of control and the T/C (dose: 2.5 mg/kg/injection, schedule: Q01DX009 (ip), vehicle: saline) was 154 % of control. The T/C (dose: 2.5 mg/kg/injection, schedule: Q01DX010 (ip), vehicle: saline) was 154 % of control, the T/C (dose: 5.0 mg/kg/injection, schedule: Q01DX009 (ip), vehicle: saline) was 163 % of control and the T/C (dose: 37.0 micrograms/kg/injection, schedule: Q01DX010 (ip), vehicle: saline) was 120 % of control. For the same compound, the T/C (dose: 150.0 micrograms/kg/injection, schedule: Q01DX010 (ip), vehicle: saline) was 150 % of control.
With `CCOC(=O)c1c(C(=O)OCC)c(C)n(NC(=S)NC)c1C` the T/C (dose: 75.0 mg/kg/injection, schedule: Q01DX009 (ip), vehicle: saline with Tween-80) was 103 % of control, the T/C (dose: 150.0 mg/kg/injection, schedule: Q01DX009 (ip), vehicle: saline with Tween-80) was 89 % of control and the T/C (dose: 300.0 mg/kg/injection, schedule: Q01DX009 (ip), vehicle: saline with Tween-80) was 93 % of control.
In the case of `COC(=O)[C@]1(C)CCC[C@]2(C)[C@H]3CC4OO[C@@]3(CC[C@H]21)[C@H]1O[C@@]41C(C)C`, the T/C (dose: 100.0 mg/kg/injection, schedule: Q01DX009 (ip), vehicle: other) is reported as 120 % of control, the T/C (dose: 100.0 mg/kg/injection, schedule: Q04DX003 (ip), vehicle: other) is reported as 113 % of control and the T/C (dose: 132.0 mg/kg/injection, schedule: Q01DX009 (ip), vehicle: other) is reported as 100 % of control. For the same compound, the T/C (dose: 200.0 mg/kg/injection, schedule: Q01DX009 (ip), vehicle: other) was 87 % of control, the T/C (dose: 200.0 mg/kg/injection, schedule: Q04DX003 (ip), vehicle: other) was 118 % of control and the T/C (dose: 400.0 mg/kg/injection, schedule: Q04DX003 (ip), vehicle: other) was 104 % of control.
In the case of `[NH-]C(CCC(N)=O)C(=O)O.[NH-]C(CCCN=C(N)N)C(=O)O.[Zn+2]` (configuration not stated), the T/C (dose: 50.0 mg/kg/injection, schedule: Q01DX005 (ip), vehicle: saline) is reported as 104 % of control and the T/C (dose: 100.0 mg/kg/injection, schedule: Q01DX005 (ip), vehicle: saline) is reported as 120 % of control.
For `C[C@]12CC[C@@H]3c4ccc(O)cc4CC[C@H]3[C@@H]1CC[C@@H]2OC(=O)CCC1CCCC1`, the T/C (dose: 100.0 mg/kg/injection, schedule: Q01DX009 (ip), vehicle: Klucel (hydroxypropylcellulose) (HPC)) was 100 % of control, the T/C (dose: 100.0 mg/kg/injection, schedule: Q04DX003 (ip), vehicle: Klucel (hydroxypropylcellulose) (HPC)) was 104 % of control and the T/C (dose: 200.0 mg/kg/injection, schedule: Q01DX009 (ip), vehicle: Klucel (hydroxypropylcellulose) (HPC)) was 95 % of control. The T/C (dose: 200.0 mg/kg/injection, schedule: Q04DX003 (ip), vehicle: Klucel (hydroxypropylcellulose) (HPC)) was 104 % of control, the T/C (dose: 400.0 mg/kg/injection, schedule: Q01DX009 (ip), vehicle: Klucel (hydroxypropylcellulose) (HPC)) was 104 % of control and the T/C (dose: 400.0 mg/kg/injection, schedule: Q04DX003 (ip), vehicle: Klucel (hydroxypropylcellulose) (HPC)) was 104 % of control.
In the case of `COc1ccc(CN2CCCN(Cc3ccc(OC)cc3)S2)cc1`, the T/C (dose: 50.0 mg/kg/injection, schedule: Q01DX009 (ip), vehicle: saline with Tween-80) is reported as 92 % of control, the T/C (dose: 100.0 mg/kg/injection, schedule: Q01DX009 (ip), vehicle: saline with Tween-80) is reported as 101 % of control and the T/C [1] is reported as 110 % of control.
